According to patent US20020183333A1, “Compositions and methods for chemotherapy having reduced nephrotoxicity” (priority 2000, published 2002):
“Also recorded” adds a separate entry of the source.

Tests used:
LLC-WRC 256 cells [1] = assay: Antineoplastic efficacy of CP by trypan blue exclusion assay (percentage of non-viable cells); assay type: cell-based, rat; details: for effect of the inhibitor on the antineoplastic efficacy of cisplatin: 30 min preincubation with DFO 1 mM, DMSO 5 mM, CM 2 mM or PB 1 mM, then cisplatin 500 μg/ml for 5 hours, FIGS. 2 and 3
Procedure: LLC-WRC 256 cells (Walker rat carcinoma cells) purchased from American Type Culture Collection (ATCC, Rockville, Maryland) were maintained in 75 cm^2 tissue culture flasks containing Medium 199 supplemented with 5% fetal bovine serum (Gibco, Gaithersburg, Md.) in a humidified atmosphere of 95% air-5% CO2 at 37° C. For the experimental study, the cell monolayers were subcultured with 0.25% trypsin into a 12-well tissue culture plate until confluence. The antineoplastic efficacy of CP in LLC-WRC 256 cells was measured by the cell viability determined by the trypan blue exclusion assay. Cells failing to exclude the dye were considered non-viable, and data expressed as the percentage of non-viable cells. Antineoplastic efficacy of CP was examined as previously described (Rawlings and Roberts, 1986, Mutation Research 166(2): 157-168.). The cells were incubated with various concentrations of CP (0-600 μg/ml) at different time points (0-6 h) in HBSS at 37° C. At the end of the incubation, the cell viability was determined. Confluent LLC-WRC 256 cell monolayer was incubated with antineoplastic dose of CP for a period of time necessary to induce consistent antineoplastic activity (CP 500 μg/ml in HBSS for 5 hours at 37° C., based on the. initial observation). The cell monolayers were preincubated with iron chelator, deferoxamine (1 mM) or hydroxyl radical scavenger, dimethyl sulfoxide (5 mM) at 37° C. for 30 minutes, washed twice with HBSS and then followed by the addition of CP. LLC-WRC 256 cell monolayers were preincubated with cimetidine (2 mM) or piperonyl butoxide (1 mM) at 37° C. for 30 min, washed with HBSS twice and then followed by the addition of CP (500 μg/ml for 5 hours at 37° C.)

LLC-WRC 256 cells [2] = assay: Catalytic iron release into the medium, bleomycin assay; assay type: cell-based, rat; details: CP 500 μg/ml for 2.5 hours, n=6; control 2.44±0.59
Procedure: Confluent […] 256 cells were washed twice with Chelex-treated HBSS and then incubated with a cytotoxic, dose of CP in Chelex-treated HBSS for a period of time before substantial cell killing occurred (500 μg/ml for 2.5 hours at 37° C., based on the time course study). The catalytic iron released into the medium was measured by the bleomycin assay, as described below. Iron capable of catalyzing free radical reactions (catalytic iron) was measured by the bleomycin assay as utilized in our previous studies (Baliga et al. , 1998, Kidney Int. 53:394-401, and Baliga et al., 1998, Kidney Int. 54:1562-1569). All reagents except for the experimental samples were made up in Chelex-treated pyrogen-free water and shaken with Chelex 100 to remove as much contaminating iron as possible. The reaction mixture contained in order: 0.5 ml of calf thymus DNA (1 mg/ml), 0.05 ml of bleomycin sulfate (1 mg/ml), 0.1 ml MgCl2 (50 mM), 0.1 ml of sample, 0.1 ml of ascorbic acid (8 mM), and either HCl (50 mM) or NaOH (50 mM) to adjust pH in the range of 7.2-7.8. […] The reaction mixture was then heated at 100° C. for 15 minutes, cooled and the resulting chromogen measured using spectrophotometer at A 532 nm. The amount of bleomycin detectable iron in the test sample was calculated from the standard curve and the results expressed as nmol/mg cellular protein recovered from the cell monolayer.

LLC-WRC 256 cells [3] = assay: Hydroxyl radical formation, deoxyribose degradation method; assay type: cell-based, rat; details: CP 500 μg/ml for 2.5 hours, n=4; control 0.45±0.03
Procedure: Confluent cell monolayers were washed with HBSS and then incubated with cytotoxic dose of CP in HBSS at 37° C. for a period of time before substantial cell killing occurred (500 μg/ml for 2.5 hours). 2-deoxy-D-ribose at a final concentration of 3 mM was added to the medium just prior to the incubation. At the end of the incubation, the medium was collected for the measurement of hydroxyl radical formation by deoxyribose degradation method as described by Halliwell et al., 1988, Meth. Biochem. Anal 33:59-90. In brief, 0.5 ml of the incubation medium was mixed with 0.5 ml of 1% (w/v). 5 thiobarbituric acid in 50 mM NaOH and 0.5 ml of 2.8% (w/v) aqueous trichloroacetic acid, heated at 100° C. for 15 min, cooled and followed by extraction with 1.5ml n-butanol. The absorbance at 532 nm of the resulting supernatant was then taken, and the hydroxyl radical level was calculated by using the extinction coefficient of 156 mM^−1 cm^−1.

[4] = tested on: cardiotoxicity induced by doxorubicin; details: women with breast cancer; cited from earlier work

CN/C(=N/CCSCc1nc[nH]c1C)NC#N [CM, cimetidine]
effect of the inhibitor on the antineoplastic efficacy of cisplatin (LLC-WRC 256 cells [1]): does not reduce the antineoplastic efficacy of CP; also recorded: do not effect the antineoplastic activity of CP

N.N.[Cl][Pt][Cl] [CP, cisplatin]
catalytic iron release (LLC-WRC 256 cells [2]): 2.78±0.41 nmol/mg protein | generation of hydroxyl radical (LLC-WRC 256 cells [3]): 0.41±0.03 nmol/mg protein | time of exposure that results in significant cell death (LLC-WRC 256 cells [1]; CP 500 μg/ml, time course 0-6 hours, FIG. 1B): 5 h | low dose at which significant cell death occurs (LLC-WRC 256 cells [1]; LLC-WRC 256 cells, 4 hour incubation, CP 0-600 μg/ml, FIG. 1A): 50 µg/mL | CP dose required to produce submaximal injury (LLC-WRC 256 cells [1]; LLC-WRC 256 cells, concentration dependent effects, FIG. 1A): 500 µg/mL

C[S+](C)[O-] [DMSO, dimethyl sulfoxide]
effect of the inhibitor on the antineoplastic efficacy of cisplatin (LLC-WRC 256 cells [1]): CP still functions as an antineoplastic compound; also recorded: does not reduce the antineoplastic efficacy of CP

C[C@@H](CN1CC(=O)NC(=O)C1)N1CC(=O)NC(=O)C1 [dexrazoxane]
effect on frequency and severity of doxorubicin-induced cardiotoxicity [4]: decrease the frequency and severity of cardiotoxicity
